Test system: patients after acute myocardial infarction
Test: TCM symptom score, total and single (chest pain, chest tightness, short breath, fatigue, palpitation, spontaneous perspiration, pale complexion), same clinical trial
Type: in vivo, human
Source text: 3508 patients who were in accordance with the diagnostic standards of AMI for 28 days to 2 years and differentiated as Qi deficiency and blood stagnation syndrome by TCM were studied. 0.5 g Chinese medicine composition prepared by the method of EXAMPLE 1 (Coded as QSYQ) was administrated half an hour after meal, 3 times per day.
They included the overall survival time, angina pectoris score, TCM symptom score and life quality score, where angina pectoris score, TCM symptom score and life quality score were evaluated at randomization, in 1st, 3rd, 6th, 9th, 12th month after treatment and 18th month after follow-up.
The analysis method referred to the angina pectoris score.

[1] = 3 months after treatment-baseline, PP
[2] = 6 months after treatment-baseline, FAS
[3] = 6 months after treatment-baseline, PP

For CC(=O)Oc1ccccc1C(=O)O [Control group, aspirine], the “change of chest pain score −6, percent of patients” value [1] was “(0.97%)”, the “change of chest tightness score 0, number of patients” value [1] was 994 and the “change of chest tightness score 0, percent of patients” value [1] was “(68.88%)”. The “change of chest tightness score 3, number of patients” value [1] was 334, the “change of chest tightness score 3, percent of patients” value [1] was “(23.15%)” and the “change of chest tightness score 6, number of patients” value [1] was 34. The “change of chest tightness score 6, percent of patients” value [1] was “(2.36%)”, the “change of chest tightness score 9, number of patients” value [1] was 4 and the “change of chest tightness score 9, percent of patients” value [1] was “(0.28%)”. For the same molecule, the “change of chest tightness score −3, number of patients” value [1] was 70, the “change of chest tightness score −3, percent of patients” value [1] was “(4.85%)” and the “change of chest tightness score −6, number of patients” value [1] was 6. For the same molecule, the “change of chest tightness score −6, percent of patients” value [1] was “(0.42%)”, the “change of chest tightness score −9, number of patients” value [1] was 1 and the “change of chest tightness score −9, percent of patients” value [1] was “(0.07%)”. The “chest pain score 0, number of patients” value (3 months after treatment, FAS) was 656, the “chest pain score 0, percent of patients” value (3 months after treatment, FAS) was “(38.21%)” and the “chest pain score 3, number of patients” value (3 months after treatment, FAS) was 643. For the same molecule, the “chest pain score 3, percent of patients” value (3 months after treatment, FAS) was “(37.45%)”, the “chest pain score 6, number of patients” value (3 months after treatment, FAS) was 410 and the “chest pain score 6, percent of patients” value (3 months after treatment, FAS) was “(23.88%)”. The “chest pain score 9, number of patients” value (3 months after treatment, FAS) was 8, the “chest pain score 9, percent of patients” value (3 months after treatment, FAS) was “(0.47%)” and the “chest tightness score 0, number of patients” value (3 months after treatment, FAS) was 656. The “chest tightness score 0, percent of patients” value (3 months after treatment, FAS) was “(38.21%)”, the “chest tightness score 3, number of patients” value (3 months after treatment, FAS) was 643 and the “chest tightness score 3, percent of patients” value (3 months after treatment, FAS) was “(37.45%)”. For the same molecule, the “chest tightness score 6, number of patients” value (3 months after treatment, FAS) was 410, the “chest tightness score 6, percent of patients” value (3 months after treatment, FAS) was “(23.88%)” and the “chest tightness score 9, number of patients” value (3 months after treatment, FAS) was 8. For the same molecule, the “chest tightness score 9, percent of patients” value (3 months after treatment, FAS) was “(0.47%)”, the “chest pain score 0, number of patients” value (3 months after treatment, PP) was 550 and the “chest pain score 0, percent of patients” value (3 months after treatment, PP) was “(38.01%)”. The “chest pain score 3, number of patients” value (3 months after treatment, PP) was 535, the “chest pain score 3, percent of patients” value (3 months after treatment, PP) was “(36.97%)” and the “chest pain score 6, number of patients” value (3 months after treatment, PP) was 356. For the same molecule, the “chest pain score 6, percent of patients” value (3 months after treatment, PP) was “(24.60%)”, the “chest pain score 9, number of patients” value (3 months after treatment, PP) was 6 and the “chest pain score 9, percent of patients” value (3 months after treatment, PP) was “(0.41%)”. For the same molecule, the “chest tightness score 0, number of patients” value (3 months after treatment, PP) was 550, the “chest tightness score 0, percent of patients” value (3 months after treatment, PP) was “(38.01%)” and the “chest tightness score 3, number of patients” value (3 months after treatment, PP) was 535. The “chest tightness score 3, percent of patients” value (3 months after treatment, PP) was “(36.97%)”, the “chest tightness score 6, number of patients” value (3 months after treatment, PP) was 356 and the “chest tightness score 6, percent of patients” value (3 months after treatment, PP) was “(24.60%)”. For the same molecule, the “chest tightness score 9, number of patients” value (3 months after treatment, PP) was 6, the “chest tightness score 9, percent of patients” value (3 months after treatment, PP) was “(0.41%)” and the “change of chest pain score 0, number of patients” value [2] was 1104. For the same molecule, the “change of chest pain score 0, percent of patients” value [2] was “(64.60%)”, the “change of chest pain score 3, number of patients” value [2] was 405 and the “change of chest pain score 3, percent of patients” value [2] was “(23.70%)”. The “change of chest pain score 6, number of patients” value [2] was 101, the “change of chest pain score 6, percent of patients” value [2] was “(5.91%)” and the “change of chest pain score 9, number of patients” value [2] was 6. For the same molecule, the “change of chest pain score 9, percent of patients” value [2] was “(0.35%)”, the “change of chest pain score −3, number of patients” value [2] was 80 and the “change of chest pain score −3, percent of patients” value [2] was “(4.68%)”. For the same molecule, the “change of chest pain score −6, number of patients” value [2] was 13, the “change of chest pain score −6, percent of patients” value [2] was “(0.76%)” and the “change of chest pain score −9, number of patients” value [2] was 0. For the same molecule, the “change of chest pain score −9, percent of patients” value [2] was “(0.00%)”, the “change of chest tightness score 0, number of patients” value [2] was 1105 and the “change of chest tightness score 0, percent of patients” value [2] was “(64.66%)”. The “change of chest tightness score 1, number of patients” value [2] was 1, the “change of chest tightness score 1, percent of patients” value [2] was “(0.06%)” and the “change of chest tightness score 3, number of patients” value [2] was 459. For the same molecule, the “change of chest tightness score 3, percent of patients” value [2] was “(26.86%)”, the “change of chest tightness score 6, number of patients” value [2] was 48 and the “change of chest tightness score 6, percent of patients” value [2] was “(2.81%)”. The “change of chest tightness score 9, number of patients” value [2] was 4, the “change of chest tightness score 9, percent of patients” value [2] was “(0.23%)” and the “change of chest tightness score −3, number of patients” value [2] was 88. For the same molecule, the “change of chest tightness score −3, percent of patients” value [2] was “(5.15%)”, the “change of chest tightness score −6, number of patients” value [2] was 3 and the “change of chest tightness score −6, percent of patients” value [2] was “(0.18%)”. For the same molecule, the “change of chest tightness score −9, number of patients” value [2] was 1, the “change of chest tightness score −9, percent of patients” value [2] was “(0.06%)” and the “change of chest pain score 0, number of patients” value [3] was 919. The “change of chest pain score 0, percent of patients” value [3] was “(64.54%)”, the “change of chest pain score 3, number of patients” value [3] was 352 and the “change of chest pain score 3, percent of patients” value [3] was “(24.72%)”. The “change of chest pain score 6, number of patients” value [3] was 86, the “change of chest pain score 6, percent of patients” value [3] was “(6.04%)” and the “change of chest pain score 9, number of patients” value [3] was 5. For the same molecule, the “change of chest pain score 9, percent of patients” value [3] was “(0.35%)”, the “change of chest pain score −3, number of patients” value [3] was 57 and the “change of chest pain score −3, percent of patients” value [3] was “(4.00%)”. For the same molecule, the “change of chest pain score −6, number of patients” value [3] was 5, the “change of chest pain score −6, percent of patients” value [3] was “(0.35%)” and the “change of chest pain score −9, number of patients” value [3] was 0. The “change of chest pain score −9, percent of patients” value [3] was “(0.00%)”, the “change of chest tightness score 0, number of patients” value [3] was 904 and the “change of chest tightness score 0, percent of patients” value [3] was “(63.44%)”. For the same molecule, the “change of chest tightness score 1, number of patients” value [3] was 1, the “change of chest tightness score 1, percent of patients” value [3] was “(0.07%)” and the “change of chest tightness score 3, number of patients” value [3] was 407. The “change of chest tightness score 3, percent of patients” value [3] was “(28.56%)”, the “change of chest tightness score 6, number of patients” value [3] was 42 and the “change of chest tightness score 6, percent of patients” value [3] was “(2.95%)”. For the same molecule, the “change of chest tightness score 9, number of patients” value [3] was 3, the “change of chest tightness score 9, percent of patients” value [3] was “(0.21%)” and the “change of chest tightness score −3, number of patients” value [3] was 64. The “change of chest tightness score −3, percent of patients” value [3] was “(4.49%)”, the “change of chest tightness score −6, number of patients” value [3] was 3 and the “change of chest tightness score −6, percent of patients” value [3] was “(0.21%)”. For the same molecule, the “change of chest tightness score −9, number of patients” value [3] was 1, the “change of chest tightness score −9, percent of patients” value [3] was “(0.07%)” and the “chest pain score 0, number of patients” value (6 months after treatment, FAS) was 729. For the same molecule, the “chest pain score 0, percent of patients” value (6 months after treatment, FAS) was “(42.43%)”, the “chest pain score 3, number of patients” value (6 months after treatment, FAS) was 638 and the “chest pain score 3, percent of patients” value (6 months after treatment, FAS) was “(37.14%)”. For the same molecule, the “chest pain score 6, number of patients” value (6 months after treatment, FAS) was 345, the “chest pain score 6, percent of patients” value (6 months after treatment, FAS) was “(20.08%)” and the “chest pain score 9, number of patients” value (6 months after treatment, FAS) was 6. The “chest pain score 9, percent of patients” value (6 months after treatment, FAS) was “(0.35%)”, the “chest tightness score 0, number of patients” value (6 months after treatment, FAS) was 729 and the “chest tightness score 0, percent of patients” value (6 months after treatment, FAS) was “(42.43%)”. The “chest tightness score 3, number of patients” value (6 months after treatment, FAS) was 638, the “chest tightness score 3, percent of patients” value (6 months after treatment, FAS) was “(37.14%)” and the “chest tightness score 6, number of patients” value (6 months after treatment, FAS) was 345. For the same molecule, the “chest tightness score 6, percent of patients” value (6 months after treatment, FAS) was “(20.08%)”, the “chest tightness score 9, number of patients” value (6 months after treatment, FAS) was 6 and the “chest tightness score 9, percent of patients” value (6 months after treatment, FAS) was “(0.35%)”. For the same molecule, the “chest pain score 0, number of patients” value (6 months after treatment, PP) was 613.
